Type in all cases: cell-based
Assay [1] concerns the target T1, wild-type Androgen Receptor (AR-wt) (Homo sapiens, UniProt P10275).
T1 construct: expressed in transfected cells; host or cells: LNCaP (LNCaP AR (cs))
T1 sequence (P10275 1-920): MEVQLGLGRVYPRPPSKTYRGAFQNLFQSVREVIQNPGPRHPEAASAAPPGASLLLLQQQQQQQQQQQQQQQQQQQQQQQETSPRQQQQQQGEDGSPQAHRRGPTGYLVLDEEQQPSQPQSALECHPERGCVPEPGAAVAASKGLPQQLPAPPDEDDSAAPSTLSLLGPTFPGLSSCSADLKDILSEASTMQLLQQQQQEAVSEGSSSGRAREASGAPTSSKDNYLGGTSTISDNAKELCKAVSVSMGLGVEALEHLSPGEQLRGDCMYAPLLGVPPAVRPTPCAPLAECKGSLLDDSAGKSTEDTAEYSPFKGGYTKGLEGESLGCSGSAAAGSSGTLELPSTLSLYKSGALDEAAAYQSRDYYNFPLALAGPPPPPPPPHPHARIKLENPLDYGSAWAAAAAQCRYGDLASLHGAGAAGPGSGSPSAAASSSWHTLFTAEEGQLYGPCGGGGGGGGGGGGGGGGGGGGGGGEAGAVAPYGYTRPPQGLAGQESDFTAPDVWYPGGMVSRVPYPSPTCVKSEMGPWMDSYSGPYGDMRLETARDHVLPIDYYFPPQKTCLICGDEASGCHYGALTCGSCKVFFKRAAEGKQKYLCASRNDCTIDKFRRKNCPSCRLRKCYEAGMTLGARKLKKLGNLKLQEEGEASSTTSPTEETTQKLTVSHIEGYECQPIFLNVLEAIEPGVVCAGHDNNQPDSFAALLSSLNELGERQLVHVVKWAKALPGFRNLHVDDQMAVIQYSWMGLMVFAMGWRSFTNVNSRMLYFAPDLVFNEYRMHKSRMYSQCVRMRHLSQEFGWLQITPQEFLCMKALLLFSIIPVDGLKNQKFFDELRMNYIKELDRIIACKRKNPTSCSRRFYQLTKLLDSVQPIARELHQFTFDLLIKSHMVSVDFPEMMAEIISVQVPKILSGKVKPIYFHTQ
The experiment in a line: LNCaP-AR-wt ANT reporter assay (ARE firefly luciferase, antagonist mode). As to conditions: for IC50: antagonist mode, 400 pM R-1881 challenge, −Log10(IC50 [Molar]), read-out: LNCaP-AR-wt ANT pIC50 (converted); for Emax: read-out: LNCaP-AR-wt ANT MAX % Inh. In short, it runs like this: (§1)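 Read-out is luciferase luminescence taken 1 h after Steady-Glo addition, following 20-24 h compound exposure at 37 °C in LNCaP pools stably carrying wild-type or F876L AR. Cells were grown in charcoal-stripped serum. Antagonist wells received agonist at 400 pM (WT) or 600 pM (F876L).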

Assay [2] concerns the target T1, wild-type Androgen Receptor (AR-wt). The experiment in a line: LNCaP-AR-wt AG reporter assay (ARE firefly luciferase, agonist mode). As to conditions: for Emax: read-out: LNCaP-AR-wt AG MAX % Stim. Summed up:
(§2)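 Puromycin-selected pooled LNCaP populations expressing AR-wt or AR-F876L are seeded in CSS medium and treated with compound for 20-24 h at 37 °C. For antagonist testing, agonist is added at 400 pM (WT) or 600 pM (F876L). Potency values derive from least-squares fitting of luminescence RLU.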
On the technique in general: Reporter assays use an easily measured gene product as a stand-in for the process of interest.

Assay [3] deals with T2, F876L mutant Androgen Receptor (AR-F876L) (Homo sapiens, UniProt P10275, F877L).
T2 construct: expressed in transfected cells; host or cells: LNCaP (LNCaP F876L)
T2 sequence (P10275 1-920 F877L): T1 sequence (P10275 1-920) with F877L
The experiment in a line: LNCaP-AR-F876L ANT reporter assay (ARE firefly luciferase, antagonist mode). To be noted: for Emax: read-out: LNCaP-AR-F876L ANT MAX % Inh; for IC50: read-out: LNCaP-AR-F876L ANT pIC50 (converted). In short, it runs like this:
as §1

Assay [4] deals with T2, F876L mutant Androgen Receptor (AR-F876L). The assay is described as follows: LNCaP-AR-F876L AG reporter assay (ARE firefly luciferase, agonist mode). To be noted: for Emax: read-out: LNCaP-AR-F876L AG MAX % Stim. Summed up: as §2
[5] abbreviates: maximum % inhibition of R1881 control response over tested concentration range.
The mark [6] stands for this setting: agonist mode, −Log10(EC50 [Molar]), read-out: LNCaP-AR-wt AG pEC50 (converted).
The mark [7] stands for this setting: maximum % stimulation (agonist response) over tested concentration range.
[8] abbreviates: agonist mode, −Log10(EC50 [Molar]), read-out: LNCaP-AR-F876L AG pEC50 (converted).

Positions count from the first letter of the chain named. Where two headings read alike, the source gives them in different places. Bounds are passed on as bounds.

As to `Cc1cc(N2C(=O)C3(CCC3)N(c3ccc(C(=O)NCc4cccs4)c(F)c3)C2=S)cnc1C#N` [Cpd 33, 4-[6-(6-cyano-5-methyl-3-pyridyl)-5-oxo-7-thioxo-6,8-diazaspiro[3.4]octan-8-yl]-2-fluoro-N-(2-thienylmethyl)benzamide], the IC50 was 1230 nM in assay [1] and 490 nM in assay [3]. Also, the Emax came to 99.6% in assay [1] (setting [5]), 0.3% in assay [2] (setting [7]), 100% in assay [3] (setting [5]) and 0.3% in assay [4] (setting [7]). For the same compound, the EC50 in assay [2] (setting [6]) and in assay [4] (setting [8]) was over 15100 nM in each case.
`COCCOc1ccc(N2C(=S)N(c3cnc(C#N)c(C)c3)C(=O)C23CCC3)cc1F` [Cpd 100, 5-[8-[3-fluoro-4-(2-methoxyethoxy)phenyl]-5-oxo-7-thioxo-6,8-diazaspiro[3.4]octan-6-yl]-3-methyl-pyridine-2-carbonitrile]: the figures for the IC50 in assay [1] and in assay [3] were 417 nM and 257 nM, respectively. The Emax in assay [1] (setting [5]) is 102%; in assay [2] (setting [7]) it was 1.8%; in assay [3] (setting [5]), 97.2%; in assay [4] (setting [7]) it was 1.7%. The EC50 in assay [2] (setting [6]) and in assay [4] (setting [8]) was over 15100 nM throughout.
With `N#Cc1ncc(N2C(=O)C3(CCC3)N(c3ccc(C(=O)NCc4ccc(Cl)cc4)c(F)c3)C2=S)cc1C(F)(F)F` [Cpd 53, N-[(4-chlorophenyl)methyl]-4-[6-[6-cyano-5-(trifluoromethyl)-3-pyridyl]-5-oxo-7-thioxo-6,8-diazaspiro[3.4]octan-8-yl]-2-fluoro-benzamide], the IC50 was 912 nM in assay [1] and 646 nM in assay [3]. In addition, the Emax in assay [1] (setting [5]) turned out to be 97%; in assay [2] (setting [7]) it was 1%; in assay [3] (setting [5]), 96.7%; in assay [4] (setting [7]), 0.5%. The EC50 in assay [2] (setting [6]) and in assay [4] (setting [8]) was over 15100 nM throughout.
As to `N#Cc1ncc(N2C(=O)C3(CCC3)N(c3cccc(CO)c3)C2=S)cc1C(F)(F)F` [Cpd 81, 5-[8-[3-(hydroxymethyl)phenyl]-5-oxo-7-thioxo-6,8-diazaspiro[3.4]octan-6-yl]-3-(trifluoromethyl)pyridine-2-carbonitrile], the IC50 was 708 nM in assay [1] and 776 nM in assay [3]. In addition, the Emax is 95.9% in assay [1], 0.7% in assay [2], 100% in assay [3] and 1.2% in assay [4]. The EC50 in assay [2] and in assay [4] was over 15100 nM in each case.
`Cc1cc(N2C(=O)C3(CCC3)N(c3ccc(OC4CCN(C)CC4)c(F)c3)C2=S)cnc1C#N` [Cpd 116, 5-[8-[3-fluoro-4-[(1-methyl-4-piperidyl)oxy]phenyl]-5-oxo-7-thioxo-6,8-diazaspiro[3.4]octan-6-yl]-3-methyl-pyridine-2-carbonitrile]: the results for the IC50 in assay [1] and in assay [3] were 2570 nM and 631 nM, respectively. Further, the Emax came out at 95.3% in assay [1] (setting [5]), 1.1% in assay [2] (setting [7]), 98.6% in assay [3] (setting [5]) and 3.5% in assay [4] (setting [7]). The EC50 in assay [2] (setting [6]) and in assay [4] (setting [8]) was over 15100 nM each time.
For the compound `N#Cc1ncc(N2C(=O)C3(CCC3)N(c3ccc(C(=O)NCc4cccnc4)c(F)c3)C2=S)cc1C(F)(F)F` [Cpd 67, 4-[6-[6-cyano-5-(trifluoromethyl)-3-pyridyl]-5-oxo-7-thioxo-6,8-diazaspiro[3.4]octan-8-yl]-2-fluoro-N-(3-pyridylmethyl)benzamide], the IC50 was 1260 nM in assay [1] and 407 nM in assay [3]. Also, the Emax was 99.2% in assay [1], 1.5% in assay [2], 97.4% in assay [3] and 0.8% in assay [4]. The EC50 in assay [2] and in assay [4] was over 15100 nM each time.
Turning to `CN1CCC(Oc2ccc(N3C(=S)N(c4cnc(C#N)c(C(F)(F)F)c4)C(=O)C34CCC4)c(F)c2)CC1` [Cpd 49, 5-[8-[2-fluoro-4-[(1-methyl-4-piperidyl)oxy]phenyl]-5-oxo-7-thioxo-6,8-diazaspiro[3.4]octan-6-yl]-3-(trifluoromethyl)pyridine-2-carbonitrile], the IC50 in assay [1] is 501 nM; in assay [3] it was 257 nM. In addition, the Emax in assay [1] (setting [5]) came out at 101%; in assay [2] (setting [7]), 0.6%; in assay [3] (setting [5]), 96.5%; in assay [4] (setting [7]), 0.5%. For the same compound, the EC50 in assay [2] (setting [6]) and in assay [4] (setting [8]) was over 15100 nM throughout.
In the case of `Cc1cc(N2C(=O)C3(CCC3)N(c3ccc(C4CCOCC4)cc3)C2=S)cnc1C#N` [Cpd 101, 3-methyl-5-[5-oxo-8-(4-tetrahydropyran-4-ylphenyl)-7-thioxo-6,8-diazaspiro[3.4]octan-6-yl]pyridine-2-carbonitrile], the IC50 was 479 nM in assay [1] and 363 nM in assay [3]. Also, the Emax was determined as 99.4% in assay [1], 1.1% in assay [2], 95.3% in assay [3] and 1.7% in assay [4]. Besides, the EC50 in assay [2] and in assay [4] was over 15100 nM each time.
Regarding `N#Cc1ncc(N2C(=O)C3(CCC3)N(c3ccc(Oc4ncccn4)cc3)C2=S)cc1C(F)(F)F` [Cpd 107, 5-[5-oxo-8-(4-pyrimidin-2-yloxyphenyl)-7-thioxo-6,8-diazaspiro[3.4]octan-6-yl]-3-(trifluoromethyl)pyridine-2-carbonitrile], the IC50 in assay [1] was 562 nM; in assay [3], 162 nM. Besides, the Emax in assay [1] (setting [5]) is 89.1%; in assay [2] (setting [7]) it was 2.1%; in assay [3] (setting [5]), 97.3%; in assay [4] (setting [7]), 2.4%. The EC50 in assay [2] (setting [6]) and in assay [4] (setting [8]) was over 15100 nM each time.
Turning to `N#Cc1ncc(N2C(=O)C3(CCC3)N(c3cccnc3)C2=S)cc1C(F)(F)F` [Cpd 9, 5-[5-oxo-8-(3-pyridyl)-7-thioxo-6,8-diazaspiro[3.4]octan-6-yl]-3-(trifluoromethyl)pyridine-2-carbonitrile], the IC50 in assay [1] is 871 nM; in assay [3], 692 nM. Moreover, the Emax in assay [1] is 99%; in assay [2] it was -0.2%; in assay [3] it was 100%; in assay [4], 0%. In addition, the EC50 in assay [2] and in assay [4] was over 15100 nM in each case.

The record behind these values is patent US20180008587A1, “THIOHYDANTOIN ANDROGEN RECEPTOR ANTAGONISTS FOR THE TREATMENT OF CANCER” (Jaressen Pharmaceutica NV, priority 2016, published 2018).
